The Solubility is how much of the substance goes into solution per volume. Low readings indicate little dissolved substance, high ones much dissolved substance. The term Cmax denotes the highest concentration seen after dosing. By Tmax is commonly meant the time from dosing to the highest level.

In brackets after ≈: the same amount, converted by molar mass.

Series [1] is described as follows: Stability evaluation under influencing factors. It counts as physicochemical. The following applies: for Purity decrease: 30 days vs day 0. How it is done: Appropriate amounts of crystal forms I, II. III, and the compound of formula (I) were taken and exposed to conditions of 60° C., RH (relative humidity) 92.5%, RH (relative humidity) 75%, and light, respectively. The samples were collected on day 30, and the purity of the samples and changes in XRPD were examined according to the 2020 edition of the Chinese Pharmacopoeia.

The nature of series [2]: Solubility test in pH 4.5 acetate buffer solution. It is filed as physicochemical. The settings on record: for Solubility: saturated solution, 37° C., 200 rpm, 24 h. Here is the method:
Appropriate amounts of crystal forms I, II, III, and the compound of formula (I) were weighed and placed into 15 mL centrifuge tubes separately. A pH 4.5 acetate buffer was added to each tube to prepare saturated solutions. The tubes were sealed and placed in a water bath thermostatic oscillator to shake at 37° C. and a rotation speed of 200 rpm for 24 h. After centrifugation, the supernatants were collected and diluted to the corresponding multiples. The concentrations were measured. The detection was conducted according to the 2020 edition of the Chinese Pharmacopoeia.

Series [3] in a line: Pharmacokinetic evaluation test in rats. It is filed as in vivo, SD rats. The following applies: p.o. 100 mg/kg; for Pharmacokinetic properties: SD rats; for AUCinf—obs / AUClast / Cmax / tz1/2 (terminal half-life) / Tmax: male SD rats, 100 mg/kg; for AUCinf—obs / AUClast / Cmax / tz1/2 (terminal half-life): mean, n = 3; for Tmax: n = 3, Tmax in median. How it is done: • Animals: male SD rats • Animal administration and sample collection: Crystal forms I, II, and III were each dissolved in a mixture of 20% PEG400+80% (20% Captisol in 0.5% MC) to prepare administration formulation suspensions. The administration formulations were intragastrically administered to the SD rats at a dose of 100 mg/kg. Blood samples were collected at time points of 15 min, 30 min, 1 h, 2 h, 4 h, 6 h, 8 h, 24 h, 48 h, 72 h, and […] after administration.
One day before administration, the animals underwent jugular vein catheterization. After administration, about 300 μL of blood samples were collected via the jugular vein and then placed into anticoagulation tubes containing EDTA-K2. The blood samples were centrifuged at 4° C. and 8000 rpm for 10 min to yield plasma samples, which were prepared within 30 min after blood sample collection. The plasma samples were stored in a refrigerator at −80° C. before tests.
The samples to be tested were taken out from the refrigerator at −80° C., naturally thawed at room temperature, and then vortexed for 5 min. 20 μL of each of the 20-fold diluted plasma samples was precisely pipetted into a 1.5 mL centrifuge tube, and 300 μL of an internal standard working solution at a concentration of 10 ng/mL was added. The mixture was uniformly mixed, vortexed for 5 min, and then centrifuged at 12000 rpm for 5 mun.
50 μL of the supernatant was precisely pipetted into a 96-well plate to which water was added at 150 μL/well in advance, uniformly mixed by vortexing for 5 min, and analyzed by LC-MS/MS.
The sample to be tested was taken out from the refrigerator at −80° C., naturally thawed at room temperature, and then vortexed for 5 min. 2 μL of the plasma sample was precisely pipetted and then added, together with 28 μL of blank plasma, to a 1.5 mL centrifuge tube, and 450 μL of an internal standard working solution (a solution of tolbutamide in acetonitrile) at a concentration of 100 ng/mL was added. The mixture was uniformly mixed, vortexed for 5 min, and then centrifuged at 12000 rpm for 5 min. 50 μL of the supernatant was precisely pipetted into a 96-well plate to which water was added at 150 μL/well in advance, uniformly mixed by vortexing for 5 min, and analyzed by LC-MS/MS.
The test compound concentrations were output by Analyst 1.7.1 of AB Sciex. Parameters such as mean, standard deviation, and coefficient of variation were calculated by Microsoft Excel. PK parameters were calculated by Pharsight Phoenix 8.2 software NCA (Tmax was in median).

Consider `Nc1nccn2c(C34CCC(NC(=O)CN5CCOCC5)(CC3)C4)nc(-c3ccc(C(=O)Nc4cc(C(F)(F)F)ccn4)cc3)c12` [Compound of formula (I), 4-(8-amino-3-(4-(2-morpholinoacetamido)bicyclo[2.2.1]heptan-1-yl)imidazo[1,5-a]pyrazin-1-yl)-N-(4-(trifluoromethyl)pyridin-2-yl)benzamide], for which the Purity % was determined as 99.7% in series [1] (0 day); 99.5% in series [1] (60° C., 30 days); 88.2% in series [1] (Light exposure, 30 days); 99.7% in series [1] (RH 75%, 30 days); 99.7% in series [1] (RH 92.5%, 30 days). In addition, the “Crystal form identification (XRPD)” value in series [1] (60° C., 30 days) is given as “Consistent with day 0”; in series [1] (Light exposure, 30 days), “Consistent with day 0”; in series [1] (RH 75%, 30 days), “Consistent with day 0”; in series [1] (RH 92.5%, 30 days), “Consistent with day 0”. The Purity decrease in series [1] (light exposure) is reported as 11.5%. Further, the Solubility in series [2] amounted to 65 µg/mL.

Take `Nc1nccn2c(C34CCC(NC(=O)CN5CCOCC5)(CC3)C4)nc(-c3ccc(C(=O)Nc4cc(C(F)(F)F)ccn4)cc3)c12` (single isomer, unassigned) [Crystal form III, 4-(8-amino-3-(4-(2-morpholinoacetamido)bicyclo[2.2.1]heptan-1-yl)imidazo[1,5-a]pyrazin-1-yl)-N-(4-(trifluoromethyl)pyridin-2-yl)benzamide]: in series [3], the Pharmacokinetic properties result was “very good pharmacokinetic properties”, the “AUCinf—obs” value is 2488.128 µg·h/mL, the AUClast is 2482.493 µg·h/mL and the Cmax is 142.333 µg/mL. In addition, in series [3], the “tz1/2 (terminal half-life)” value was determined as 9.39 h and the Tmax is given as 2.00 h. The same compound displayed a Purity % in series [1] (0 day) of 99.0%. In addition, in series [1] (60° C., 30 days), the “Crystal form identification (XRPD)” value is listed as “Consistent with day 0” and the Purity % came out at 94.8%. For the same compound, in series [1] (Light exposure, 30 days), the “Crystal form identification (XRPD)” value is recorded as “Consistent with day 0” and the Purity % was 88.0%. Also, in series [1] (RH 75%, 30 days), the “Crystal form identification (XRPD)” value is recorded as “Partially converted to amorphous” and the Purity % is 98.7%. Further, in series [1] (RH 92.5%, 30 days), the “Crystal form identification (XRPD)” value was “Partially converted to amorphous” and the Purity % is given as 98.7%. Also, the Purity decrease in series [1] (high temperature of 60° C.) is 4.2%. The compound also registered a Purity decrease in series [1] (light exposure) of 11%. In addition, in series [2], the “Solubility compared to the amorphous form” value is “higher solubility” and the Solubility is 98 µg/mL (≈ 154 µM).

`Nc1nccn2c(C34CCC(NC(=O)CN5CCOCC5)(CC3)C4)nc(-c3ccc(C(=O)Nc4cc(C(F)(F)F)ccn4)cc3)c12` (single isomer, unassigned) [Crystal form I, 4-(8-amino-3-(4-(2-morpholinoacetamido)bicyclo[2.2.1]heptan-1-yl)imidazo[1,5-a]pyrazin-1-yl)-N-(4-(trifluoromethyl)pyridin-2-yl)benzamide]: in series [3], the Pharmacokinetic properties entry is on record as “very good pharmacokinetic properties”, the “AUCinf—obs” value amounted to 1218.508 µg·h/mL, the AUClast was 1208.628 µg·h/mL and the Cmax is 96.267 µg/mL. Moreover, in series [3], the “tz1/2 (terminal half-life)” value was determined as 10.4 h and the time to peak (Tmax) was 1.00 h. This compound registered a Purity % in series [1] (0 day) of 98.6%. Moreover, in series [1] (60° C., 30 days), the “Crystal form identification (XRPD)” value is “Consistent with day 0” and the Purity % was found to be 98.7%. In series [1] (Light exposure, 30 days), the “Crystal form identification (XRPD)” value is “Consistent with day 0” and the Purity % is 98.1%. Also, in series [1] (RH 75%, 30 days), the “Crystal form identification (XRPD)” value is recorded as “Consistent with day 0” and the Purity % is listed as 98.7%. In series [1] (RH 92.5%, 30 days), the “Crystal form identification (XRPD)” value is listed as “Consistent with day 0” and the Purity % is 98.7%. Also, the “Change of crystal form (XRPD pattern)” value in series [1] (all influencing factor conditions, 30 days) is listed as “no changes in the crystal forms occurred”. Moreover, the “Stability compared to the amorphous form” value in series [1] (influencing factors, 30 days) is “higher stability”. The Purity decrease in series [1] (light exposure) is on record as 0.5%. Also, in series [2], the “Solubility compared to the amorphous form” value is on record as “higher solubility” and the Solubility was found to be 273 µg/mL (≈ 430 µM).
